Source: US4401660A, “Ester derivatives of 5-O-mycaminosyl tylonolide and method of using same” (Eli Lilly and Company, priority 1981, dated 1983)

Experiments:
[1] = system: Streptococcus Group D X66; assay: MIC, standard agar-dilution assay (Table II); format: cell-based; parameters: unit not given here
Method: (§1) The MIC's in Table II were determined by standard agar-dilution assays. The MIC's in Table III were obtained using a conventional broth-dilution microtiter test.

[2] = system: Staphylococcus epidermidis EPI1; assay: MIC, standard agar-dilution assay (Table II); format: cell-based; parameters: unit not given here
Method: as §1

[3] = system: Streptococcus Group D 9960; assay: MIC, standard agar-dilution assay (Table II); format: cell-based; parameters: unit not given here
Method: as §1

[4] = system: Staphylococcus aureus V41; assay: MIC, standard agar-dilution assay (Table II); format: cell-based; parameters: unit not given here; settings: Staphylococcus aureus V41, penicillin-resistant strain
Method: as §1

[5] = system: Haemophilus influenzae R252; assay: MIC, standard agar-dilution assay (Table II); format: cell-based; parameters: unit not given here; settings: Haemophilus influenzae R252, ampicillin-resistant strain
Method: as §1

[6] = system: Haemophilus influenzae Holt; assay: MIC, standard agar-dilution assay (Table II); format: cell-based; parameters: unit not given here; settings: ampicillin-sensitive strain
Method: as §1

[7] = system: Staphylococcus aureus X1.1; assay: MIC, standard agar-dilution assay (Table II); format: cell-based; parameters: unit not given here
Method: as §1

[8] = system: Streptococcus pneumoniae Park I; assay: MIC, standard agar-dilution assay (Table II); format: cell-based; parameters: unit not given here
Method: as §1

[9] = system: Staphylococcus aureus X400; assay: MIC, standard agar-dilution assay (Table II); format: cell-based; parameters: unit not given here; settings: Staphylococcus aureus X400, methicillin-resistant strain
Method: as §1

[10] = system: Streptococcus pyogenes C203; assay: MIC, standard agar-dilution assay (Table II); format: cell-based; parameters: unit not given here
Method: as §1

[11] = system: Staphylococcus epidermidis EPI2; assay: MIC, standard agar-dilution assay (Table II); format: cell-based; parameters: unit not given here
Method: as §1

[12] = system: Staphylococcus aureus S13E; assay: MIC, standard agar-dilution assay (Table II); format: cell-based; parameters: unit not given here
Method: as §1

[13] = system: Pasteurella multocida 60A; assay: MIC, broth-dilution microtiter test (Table III); format: cell-based; parameters: unit not given here; settings: avian isolate
Method: as §1

Staphylococcus aureus = assay: MIC, broth-dilution microtiter test (Table III); format: cell-based; parameters: unit not given here
Method: as §1

Streptococcus sp. 80 = assay: MIC, broth-dilution microtiter test (Table III); format: cell-based; parameters: unit not given here
Method: as §1

Mycoplasma hyorhinis = assay: MIC, broth-dilution microtiter test (Table III); format: cell-based; parameters: unit not given here
Method: as §1

[14] = system: Pasteurella multocida 68C; assay: MIC, broth-dilution microtiter test (Table III); format: cell-based; parameters: unit not given here
Method: as §1

[15] = system: Pasteurella multocida 40G; assay: MIC, broth-dilution microtiter test (Table III); format: cell-based; parameters: unit not given here
Method: as §1

[16] = system: Pasteurella haemolytica 23C; assay: MIC, broth-dilution microtiter test (Table III); format: cell-based; parameters: unit not given here
Method: as §1

[17] = system: Pasteurella haemolytica 41D; assay: MIC, broth-dilution microtiter test (Table III); format: cell-based; parameters: unit not given here
Method: as §1

Mycoplasma gallisepticum = assay: MIC, broth-dilution microtiter test (Table III); format: cell-based; parameters: unit not given here
Method: as §1

[18] = system: Pasteurella multocida 17E; assay: MIC, broth-dilution microtiter test (Table III); format: cell-based; parameters: unit not given here; settings: bovine isolate
Method: as §1

Mycoplasma synoviae = assay: MIC, broth-dilution microtiter test (Table III); format: cell-based; parameters: unit not given here
Method: as §1

[19] = system: Pasteurella haemolytica 22C; assay: MIC, broth-dilution microtiter test (Table III); format: cell-based; parameters: unit not given here
Method: as §1

[20] = system: Pasteurella multocida 22A; assay: MIC, broth-dilution microtiter test (Table III); format: cell-based; parameters: unit not given here
Method: as §1

Pasteurella multocida = assay: Treatment of Pasteurella infections in chicks (Table V); format: in vivo, one-day-old chicks; settings: Pasteurella multocida, sc, 4 h; 30 mg/kg by subcutaneous injection one and four hours post challenge; read-out: Deaths in Treated Chicks/Number Treated (converted)
Method in brief: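 One-day-old chicks challenged subcutaneously with avian P. multocida (0.1 ml of 10^-3 dilution of 20-hour tryptose broth culture). Esters given at 30 mg/kg subcutaneously at 1 and 4 hours post challenge. Untreated infected controls, ten per group.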

SMILES | minimal inhibitory concentration (MIC) [1] | minimal inhibitory concentration (MIC) [2] | minimal inhibitory concentration (MIC) [3] | minimal inhibitory concentration (MIC) [4] | minimal inhibitory concentration (MIC) [5] | minimal inhibitory concentration (MIC) [6] | minimal inhibitory concentration (MIC) [7] | minimal inhibitory concentration (MIC) [8] | minimal inhibitory concentration (MIC) [9] | minimal inhibitory concentration (MIC) [10] | minimal inhibitory concentration (MIC) [11] | minimal inhibitory concentration (MIC) [12] | minimal inhibitory concentration (MIC) [13] | minimal inhibitory concentration (MIC) (Staphylococcus aureus) | minimal inhibitory concentration (MIC) (Streptococcus sp. 80) | minimal inhibitory concentration (MIC) (Mycoplasma hyorhinis) | minimal inhibitory concentration (MIC) [14] | minimal inhibitory concentration (MIC) [15] | minimal inhibitory concentration (MIC) [16] | minimal inhibitory concentration (MIC) [17] | further results
CCC1OC(=O)CC(O)C(C)C(OC2OC(C)C(O)C(N(C)C)C2O)C(CC=O)CC(C)C(=O)C=CC(C)=CC1COC(=O)Cc1ccc([N+](=O)[O-])cc1 (stereo not shown) [Compound 65] | 0.125 | 0.125 | 0.125 | 0.125 | 1 | 1 | 0.125 | 0.03 | 0.125 | 0.06 | 0.125 | 0.125 | 3.12 | 0.39 | 0.195 | 0.78 | 3.12 | 1.56 | 3.12 | 3.12 | minimal inhibitory concentration (MIC) (Mycoplasma gallisepticum): 0.195; minimal inhibitory concentration (MIC) [18]: 3.12; minimal inhibitory concentration (MIC) (Mycoplasma synoviae): < 0.05; minimal inhibitory concentration (MIC) [19]: 3.12; minimal inhibitory concentration (MIC) [20]: 3.12; mortality at 30 mg/kg (Pasteurella multocida): 73.3%
CCC1OC(=O)CC(O)C(C)C(OC2OC(C)C(O)C(N(C)C)C2O)C(CC=O)CC(C)C(=O)C=CC(C)=CC1COC(=O)Cc1cc(OC)ccc1OC (stereo not shown) [Compound 63] | 0.125 | 0.25 | 0.25 | 0.25 | 2 | 1 | 0.125 | 0.03 | 0.25 | 0.06 | 0.25 | 0.25 | 3.12 | 1.56 | 0.195 | 1.56 | 6.25 | 3.12 | 6.25 | 12.5 | minimal inhibitory concentration (MIC) (Mycoplasma gallisepticum): 0.39; minimal inhibitory concentration (MIC) [18]: 6.25; minimal inhibitory concentration (MIC) (Mycoplasma synoviae): < 0.05; minimal inhibitory concentration (MIC) [19]: 6.25; minimal inhibitory concentration (MIC) [20]: 6.25; mortality at 30 mg/kg (Pasteurella multocida): 75%
CCC(=O)OCC1C=C(C)C=CC(=O)C(C)CC(CC=O)C(OC2OC(C)C(O)C(N(C)C)C2OC(=O)CC)C(C)C(O)CC(=O)OC1CC (stereo not shown) [Compound 10, 2',23-Di-O-Propionyl-OMT] | 0.5 | 0.25 | 0.5 | 0.5 | 8 | 2 | 0.25 | 0.125 | 0.5 | 0.25 | 0.25 | 0.5 | 1.56 | 0.39 | 0.195 | 0.78 | 1.56 | 1.56 | 6.25 | 6.25 | minimal inhibitory concentration (MIC) (Mycoplasma gallisepticum): 0.097; minimal inhibitory concentration (MIC) [18]: 1.56; minimal inhibitory concentration (MIC) (Mycoplasma synoviae): 0.097; minimal inhibitory concentration (MIC) [19]: 6.25; minimal inhibitory concentration (MIC) [20]: 6.25; mortality at 30 mg/kg (Pasteurella multocida): 10%
CCC1OC(=O)CC(O)C(C)C(OC2OC(C)C(O)C(N(C)C)C2OC(C)=O)C(CC=O)CC(C)C(=O)C=CC(C)=CC1COC(=O)C(C)(C)C (stereo not shown) [Compound 67] | 0.25 | 0.25 | 0.25 | 0.25 | 1 | 1 | 0.25 | 0.06 | 0.25 | 0.125 | 0.25 | 0.25 | 3.12 | 1.56 | < 0.78 | 0.39 | 1.56 | 3.12 | 6.25 | 6.25 | minimal inhibitory concentration (MIC) (Mycoplasma gallisepticum): < 0.048; minimal inhibitory concentration (MIC) [18]: 3.12; minimal inhibitory concentration (MIC) (Mycoplasma synoviae): < 0.048; minimal inhibitory concentration (MIC) [19]: 12.5; minimal inhibitory concentration (MIC) [20]: 3.12; mortality at 30 mg/kg (Pasteurella multocida): 80%
CCC(=O)OCC1C=C(C)C=CC(=O)C(C)CC(CC=O)C(OC2OC(C)C(OC(=O)CC)C(N(C)C)C2OC(=O)CC)C(C)C(O)CC(=O)OC1CC (stereo not shown) [Compound 8, 2',4',23-Tri-O-propionyl-OMT] | 0.5 | 0.25 | 0.5 | 0.5 | 4 | 2 | 0.25 | 0.25 | 0.5 | 0.25 | 0.25 | 0.5 | 1.56 | 0.39 | 0.195 | 0.78 | 1.56 | 1.56 | 6.25 | 3.12 | minimal inhibitory concentration (MIC) (Mycoplasma gallisepticum): 0.048; minimal inhibitory concentration (MIC) [18]: 1.56; minimal inhibitory concentration (MIC) (Mycoplasma synoviae): 0.048; minimal inhibitory concentration (MIC) [19]: 3.12; minimal inhibitory concentration (MIC) [20]: 3.12; mortality at 30 mg/kg (Pasteurella multocida): 60%
